For test [1], the target named is T1, HLA class I molecule A*0201 (Homo sapiens, UniProt P04439, D140Y/D185E/D98H/E176V/E277Q/G131W/G231S/I119V/I121R/I166T/I218V/L300P/L318F/N151K/N90K/P208A/P217A/Q86G/Q94H/R138H/R169H/T345S).
T1 construct: purchased ProImmune Ltd., Oxford, UK
In kind it is binding. As to conditions: REVEAL assay, assembly of peptide-HLA complex by ELISA with conformation-dependent anti-HLA antibody, relative to positive control peptide for that allele, comparable within an allele only.

Test [2] concerns the target T2, HLA class I molecule B*0702 (Homo sapiens, UniProt P01889).
T2 construct: purchased ProImmune Ltd., Oxford, UK
The test can be described thus: REVEAL HLA-peptide binding assay, B*0702. The arrangement: concentration or dose not given beside the values. As to conditions: assembly of peptide-HLA complex by ELISA with conformation-dependent anti-HLA antibody, relative to positive control peptide for that allele, comparable within an allele only. The procedure:
(§1) The REVEAL HLA-peptide binding assay (ProImmune Ltd., Oxford, UK) was used to quantify peptide-HLA binding. For each allele-peptide combination that was tested, assembly of peptide-HLA complexes was quantified by ELISA with a conformation-dependent anti-HLA antibody. Samples of assembling peptide-HLA complexes were taken at a defined time point and snap-frozen in liquid nitrogen prior to analysis. The assembly for each peptide-HLA complex was then compared against a positive control peptide for that allele as the percentage of assembled peptide relative to that control. We selected four HLA class I alleles and 50 HTLV-1 peptides for each allele. The allele choice was based on allele frequency in the Kagoshima database and included 2 A alleles and 2 B alleles as well as alleles for which we knew that the epitope prediction tended to be poor. The 50 HTLV-1 nonamer peptides for each allele were selected to represent a range of predicted binding affinities, from weak to strong binding peptides. They originated from 4 HTLV-1 reference strain proteins: Tax, HBZ, Gag and Polymerase.
(§2) Note the binding score is with respect to a reference good binding peptide for each allele and therefore scores can be compared within an allele but not between alleles.

Test [3] addresses HLA class I molecule B*3501 (Homo sapiens, UniProt P01889, A329T/A93T/A95T/C349S/D201E/D98Y/E176V/E187L/E204Q/E69T/I218V/K202T/L119I/Q94N/R155S/R180L/S121R/S35A/S48A/T118I/V127L/V306I/V36M/Y140S/Y91F). The test can be described thus: REVEAL HLA-peptide binding assay, B*3501. As to conditions: assembly of peptide-HLA complex by ELISA with conformation-dependent anti-HLA antibody, relative to positive control peptide for that allele, comparable within an allele only. The procedure: as §1, §2
A general note: ELISA stands for enzyme-linked immunosorbent assay.

Test [4] addresses T3, HLA class I molecule A*2402 (Homo sapiens, UniProt P04439, D101N/D140Y/D185E/E176V/E190D/F33S/G103R/G107R/I119L/I121M/I306V/K335N/L105A/L180Q/L300P/N151K/N90K/Q86E/Q94H/R106L/R138H/R89G/T104I/T345S/V100E/W191G/Y123F).
T3 construct: purchased ProImmune Ltd., Oxford, UK
It counts as binding. As to conditions: REVEAL assay, assembly of peptide-HLA complex by ELISA with conformation-dependent anti-HLA antibody, relative to positive control peptide for that allele, comparable within an allele only.

Test [5] relates to autologous B-LCL loaded with HBZ26–34 peptide. Description: Chromium release assay, peptide-loaded B-LCL. It counts as cell-based, human. As to conditions: 1 µM HBZ 26–34 peptide, 4 h, ^51Cr release; data not shown. The procedure: PBMC from HLA A*0201^+ and HLA A*0201^− HTLV-1 infected individuals were depleted of CD8^+ cells, then enriched for CD25^+ cells using MACS beads (Miltenyi Biotech, Germany), according to manufacturer's instructions. CD25^+ cells were cultured for 16h to allow for viral antigen expression and presentation, then labelled with ^51Cr by incubating for 1h in the presence of 50–100 µCi Na2CrO4 (MP Biomedicals, USA). Labelled cells were washed extensively and placed in culture in triplicate (40,000 cells/well) in the presence of defined ratios of HBZ-1, a CTL clone which recognises HBZ 26–34 in the context of HLA A*0201 [37], alone or in the presence of 5% Triton x-100 (Sigma Aldrich). As a control, ^51Cr labelled B-LCL (autologous to the CTL clone) were cultured at the same ratios, with and without 1 µM HBZ 26–34 peptide. […] Total specific lysis was calculated using the following formula: [chromium release (test well)−chromium release (no CTL control)]/ [chromium release (Triton−100% lysis)−chromium release (no CTL control)]*100, expressed as a percentage specific lysis of total cells. […] Percentage infected cells lysed was calculated using the following formula: [Percentage total cells lysed]/[fraction of CD4^+CD25^+ cells that are infected i.e. provirus positive].

These results are taken from publication PMC2944806, “HLA Class I Binding of HBZ Determines Outcome in HTLV-1 Infection” (PLoS Pathogens, 2010).

Regarding AAHHWLNFL [HTLV-1 nonamer peptide], the figures for the “Score (experimentally measured binding affinity, % binding compared to control peptide)” value in test [1], in test [2] and in test [3] were 5.86%, 27.59% and 0%, respectively.

With ASGLFRCLP [HTLV-1 nonamer peptide], the “Score (experimentally measured binding affinity, % binding compared to control peptide)” value in test [4] worked out at 4.14%; in test [1], 2.99%; in test [2], 2%; in test [3], 0%.

As to AVLDGLLSL [HTLV-1 nonamer peptide], the “Score (experimentally measured binding affinity, % binding compared to control peptide)” value in test [4] turned out to be 1.41%; in test [1] it was 92.9%; in test [2], 18.76%; in test [3], 0%.

Regarding FVERLNIAL [HTLV-1 nonamer peptide], the “Score (experimentally measured binding affinity, % binding compared to control peptide)” value was 6.6% in test [1], 104.14% in test [2] and 13.69% in test [3].

Regarding GFGQSLLFG [HTLV-1 nonamer peptide], the “Score (experimentally measured binding affinity, % binding compared to control peptide)” value in test [4] is listed as 1.06%; in test [1], 0.29%; in test [2] it was 0%; in test [3], 0%.

In the case of “GLLSLEEEL [HTLV-1 nonamer peptide, HBZ26–34, recognised in the context of HLA-A*0201]”, in test [1], the “Score (experimentally measured binding affinity, % binding compared to control peptide)” value worked out at 63.68%. The “Lysis of peptide-loaded autologous B-LCL by the HBZ-specific CD8^+ T cell clone” value in test [5] is reported as “could be lysed by the CD8^+ T cell clone”.

As for IQYSSFHSL [HTLV-1 nonamer peptide], the figures for the “Score (experimentally measured binding affinity, % binding compared to control peptide)” value in test [4], in test [1] and in test [2] were 87.52%, 93.93% and 2.94%, respectively.

On to KALMPVFTL [HTLV-1 nonamer peptide], for which the “Score (experimentally measured binding affinity, % binding compared to control peptide)” value was 8.05% in test [4], 79.88% in test [1], 40.22% in test [2] and 11.5% in test [3].

With LAAHHWLNF [HTLV-1 nonamer peptide], the “Score (experimentally measured binding affinity, % binding compared to control peptide)” value is reported as 35.91% in test [4], 4.59% in test [2] and 75.12% in test [3].

Consider QAMRKYSPF [HTLV-1 nonamer peptide], for which the “Score (experimentally measured binding affinity, % binding compared to control peptide)” value in test [4] stood at 56.78%; in test [2], 140.22%; in test [3] it was 69.18%.

Consider RICPINYSL [HTLV-1 nonamer peptide], for which the results for the “Score (experimentally measured binding affinity, % binding compared to control peptide)” value in test [4], in test [1] and in test [2] were 77.87%, 71.46% and 110.59%, respectively.

In the case of RVIGSALQF [HTLV-1 nonamer peptide], the “Score (experimentally measured binding affinity, % binding compared to control peptide)” value in test [4] turned out to be 65.17%; in test [2], 87.63%; in test [3] it was 42.94%.

For RVNEILHIL [HTLV-1 nonamer peptide], the results for the “Score (experimentally measured binding affinity, % binding compared to control peptide)” value in test [1], in test [2] and in test [3] were 49.35%, 89.83% and 8.02%, respectively.

Take SAQWIPWRL [HTLV-1 nonamer peptide]: the “Score (experimentally measured binding affinity, % binding compared to control peptide)” value in test [4] stood at 27.07%; in test [1], 24.03%; in test [2] it was 0%; in test [3], 14.94%.

Consider SLVQLRQAL [HTLV-1 nonamer peptide], for which the results for the “Score (experimentally measured binding affinity, % binding compared to control peptide)” value in test [1], in test [2] and in test [3] were 6.84%, 119.22% and 0%, respectively.

Regarding TFLKTAAPL [HTLV-1 nonamer peptide], the “Score (experimentally measured binding affinity, % binding compared to control peptide)” value was 86.12% in test [4] and 28.15% in test [2].
